In ChEMBL document CHEMBL1201862, “PubChem BioAssay data set” (2004):
The source made the active and inactive calls.

Experiments:
Cytochrome P450 3A4 = Cytochrome P450 3A4 (Homo sapiens, UniProt P08684); conditions: Potency;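 note: confirmatory qHTS run detecting inhibitors and substrates of CYP3A4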
[1] = intracellular Trypanosoma cruzi inhibitors in host cells – cell-based, plate reader, cherry-pick samples, set 3, dose response (AID 651818); format: functional;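 note: compounds incubated with infected cells for about four days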
[2] = molecular target: T1, Short transient receptor potential channel 4 (Mus musculus, UniProt Q9QUQ5); assay: mouse TRPC4 channel inhibitors, dose response, cell-based, HEK293 TRPC4/mu-opioid, Fluo-4 calcium (AID 434942); format: functional;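 note: potency of inhibitors blocking the TRPC4 calcium response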
T1 sequence (Q9QUQ5 whole entry): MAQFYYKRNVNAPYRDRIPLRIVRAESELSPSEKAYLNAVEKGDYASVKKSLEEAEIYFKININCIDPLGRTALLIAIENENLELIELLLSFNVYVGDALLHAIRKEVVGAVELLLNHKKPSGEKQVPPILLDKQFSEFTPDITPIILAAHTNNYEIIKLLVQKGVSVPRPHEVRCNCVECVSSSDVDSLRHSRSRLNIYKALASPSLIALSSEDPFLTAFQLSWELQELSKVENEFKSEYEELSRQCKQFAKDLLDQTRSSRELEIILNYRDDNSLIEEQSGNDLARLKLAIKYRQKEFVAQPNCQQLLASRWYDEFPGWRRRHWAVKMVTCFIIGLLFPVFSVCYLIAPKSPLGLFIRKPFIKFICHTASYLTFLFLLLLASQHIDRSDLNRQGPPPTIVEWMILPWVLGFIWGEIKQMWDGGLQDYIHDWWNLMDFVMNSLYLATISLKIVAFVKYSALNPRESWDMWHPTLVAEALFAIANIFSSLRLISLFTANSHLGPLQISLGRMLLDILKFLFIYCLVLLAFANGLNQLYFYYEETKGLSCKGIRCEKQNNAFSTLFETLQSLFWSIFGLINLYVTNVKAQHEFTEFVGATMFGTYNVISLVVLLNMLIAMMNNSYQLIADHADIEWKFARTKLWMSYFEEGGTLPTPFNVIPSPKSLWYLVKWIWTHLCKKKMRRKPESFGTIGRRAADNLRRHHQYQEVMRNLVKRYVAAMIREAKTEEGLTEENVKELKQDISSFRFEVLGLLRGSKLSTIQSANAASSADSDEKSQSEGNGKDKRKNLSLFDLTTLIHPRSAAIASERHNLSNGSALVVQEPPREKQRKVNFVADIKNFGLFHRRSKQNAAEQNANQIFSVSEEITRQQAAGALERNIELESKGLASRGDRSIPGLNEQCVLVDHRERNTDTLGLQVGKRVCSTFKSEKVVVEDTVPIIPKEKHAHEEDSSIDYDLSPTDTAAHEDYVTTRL

[3] = molecular target: T1, Short transient receptor potential channel 4; assay: mouse TRPC4 channel activators, dose response, cell-based, HEK293 TRPC4/mu-opioid, Fluo-4 calcium (AID 434937); format: functional
[4] = ZM109 Env clade C HIV-1 fusion inhibitors, dose response, HeLa effector, CEM target cells, luciferase, cherry-pick (AID 652058); format: functional, cell-based
[5] = molecular target: T2, DNA repair and recombination protein RAD54-like (Homo sapiens, UniProt Q92698); assay: inhibitors of human RAD54 branch migration, confirmation, biochemical, fluorescence, cherry-picked samples, dose series (AID 651657); format: functional
T2 sequence (Q92698 whole entry): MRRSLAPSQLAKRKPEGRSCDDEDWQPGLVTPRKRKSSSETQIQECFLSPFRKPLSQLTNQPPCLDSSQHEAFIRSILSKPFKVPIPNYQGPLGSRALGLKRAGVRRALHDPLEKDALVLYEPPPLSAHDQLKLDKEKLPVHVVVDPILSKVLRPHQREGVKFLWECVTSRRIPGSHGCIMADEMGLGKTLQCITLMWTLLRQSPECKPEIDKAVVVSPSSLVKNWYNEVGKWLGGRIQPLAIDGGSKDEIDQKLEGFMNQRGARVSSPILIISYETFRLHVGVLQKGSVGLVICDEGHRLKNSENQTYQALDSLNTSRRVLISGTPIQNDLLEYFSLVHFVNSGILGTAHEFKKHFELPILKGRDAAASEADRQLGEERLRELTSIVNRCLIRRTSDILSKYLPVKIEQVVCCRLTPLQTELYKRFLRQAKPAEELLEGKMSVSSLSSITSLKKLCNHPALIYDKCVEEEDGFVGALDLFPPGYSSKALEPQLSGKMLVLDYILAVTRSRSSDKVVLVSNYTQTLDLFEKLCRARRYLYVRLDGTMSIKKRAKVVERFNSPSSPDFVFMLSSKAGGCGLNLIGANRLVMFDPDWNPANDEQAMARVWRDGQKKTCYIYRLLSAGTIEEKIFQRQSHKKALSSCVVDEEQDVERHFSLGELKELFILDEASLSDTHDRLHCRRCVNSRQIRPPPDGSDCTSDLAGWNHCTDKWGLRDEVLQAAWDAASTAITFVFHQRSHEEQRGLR

[6] = molecular target: T3, Replicative DNA helicase DnaB (Mycobacterium tuberculosis, UniProt P9WMR3); assay: DnaB intein splicing inhibitors, dose response, biochemical, cell-free fluorescence (AID 449749); format: functional
T3 sequence (P9WMR3 whole entry): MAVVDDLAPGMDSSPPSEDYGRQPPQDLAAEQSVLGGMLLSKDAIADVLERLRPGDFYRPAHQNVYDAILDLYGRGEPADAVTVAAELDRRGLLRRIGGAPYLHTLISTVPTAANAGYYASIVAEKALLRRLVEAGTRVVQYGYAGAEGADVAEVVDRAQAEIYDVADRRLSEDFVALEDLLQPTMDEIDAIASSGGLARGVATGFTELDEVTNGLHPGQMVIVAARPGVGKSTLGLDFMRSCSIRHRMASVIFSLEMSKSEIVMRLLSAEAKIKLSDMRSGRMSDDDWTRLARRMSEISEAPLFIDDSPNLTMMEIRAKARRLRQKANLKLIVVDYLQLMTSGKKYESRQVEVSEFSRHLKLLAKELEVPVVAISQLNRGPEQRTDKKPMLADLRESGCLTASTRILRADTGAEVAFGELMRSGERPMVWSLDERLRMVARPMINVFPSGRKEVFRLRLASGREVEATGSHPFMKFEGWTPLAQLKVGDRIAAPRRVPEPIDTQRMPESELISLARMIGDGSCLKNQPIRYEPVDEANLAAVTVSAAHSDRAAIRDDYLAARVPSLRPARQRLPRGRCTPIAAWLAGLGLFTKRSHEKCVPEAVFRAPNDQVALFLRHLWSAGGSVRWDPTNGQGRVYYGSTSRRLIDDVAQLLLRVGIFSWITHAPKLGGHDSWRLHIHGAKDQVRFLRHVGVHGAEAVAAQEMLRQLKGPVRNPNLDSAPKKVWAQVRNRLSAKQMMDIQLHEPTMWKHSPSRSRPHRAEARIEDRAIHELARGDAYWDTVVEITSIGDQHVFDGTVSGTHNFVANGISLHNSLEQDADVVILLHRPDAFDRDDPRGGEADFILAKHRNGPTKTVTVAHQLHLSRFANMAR

Protein RecA = molecular target: T4, Protein RecA (Mycobacterium tuberculosis, UniProt P9WHJ3); assay: Fluorescence Cell-Free Homogeneous Dose Retest to Identify Inhibitors of RecA-Intein Splicing Activity. [Related pubchem assays (depositor defined):AID2097, AID2223, AID489010, AID492950]; format: functional
T4 sequence (P9WHJ3 whole entry): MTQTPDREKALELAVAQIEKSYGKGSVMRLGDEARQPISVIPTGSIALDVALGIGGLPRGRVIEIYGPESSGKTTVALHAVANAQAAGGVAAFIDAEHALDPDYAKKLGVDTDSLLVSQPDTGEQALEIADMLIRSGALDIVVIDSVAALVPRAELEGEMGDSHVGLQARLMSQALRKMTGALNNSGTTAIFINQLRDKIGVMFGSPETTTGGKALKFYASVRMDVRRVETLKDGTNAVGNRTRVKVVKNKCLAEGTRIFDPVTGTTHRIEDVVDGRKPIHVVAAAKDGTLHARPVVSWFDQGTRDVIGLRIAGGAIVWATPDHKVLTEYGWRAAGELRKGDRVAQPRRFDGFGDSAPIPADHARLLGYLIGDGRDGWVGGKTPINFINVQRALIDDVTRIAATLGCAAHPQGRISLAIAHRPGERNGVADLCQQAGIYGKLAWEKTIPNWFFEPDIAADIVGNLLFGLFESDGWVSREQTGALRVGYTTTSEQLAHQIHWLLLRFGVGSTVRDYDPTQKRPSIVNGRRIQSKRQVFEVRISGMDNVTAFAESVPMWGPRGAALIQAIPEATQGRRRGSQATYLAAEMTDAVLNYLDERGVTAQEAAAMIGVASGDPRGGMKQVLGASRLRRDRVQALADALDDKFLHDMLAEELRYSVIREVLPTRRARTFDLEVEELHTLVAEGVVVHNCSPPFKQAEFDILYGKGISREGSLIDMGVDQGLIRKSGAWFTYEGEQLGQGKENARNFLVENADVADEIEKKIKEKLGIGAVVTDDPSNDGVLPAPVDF

Sequence of Cytochrome P450 3A4 (P08684 whole entry): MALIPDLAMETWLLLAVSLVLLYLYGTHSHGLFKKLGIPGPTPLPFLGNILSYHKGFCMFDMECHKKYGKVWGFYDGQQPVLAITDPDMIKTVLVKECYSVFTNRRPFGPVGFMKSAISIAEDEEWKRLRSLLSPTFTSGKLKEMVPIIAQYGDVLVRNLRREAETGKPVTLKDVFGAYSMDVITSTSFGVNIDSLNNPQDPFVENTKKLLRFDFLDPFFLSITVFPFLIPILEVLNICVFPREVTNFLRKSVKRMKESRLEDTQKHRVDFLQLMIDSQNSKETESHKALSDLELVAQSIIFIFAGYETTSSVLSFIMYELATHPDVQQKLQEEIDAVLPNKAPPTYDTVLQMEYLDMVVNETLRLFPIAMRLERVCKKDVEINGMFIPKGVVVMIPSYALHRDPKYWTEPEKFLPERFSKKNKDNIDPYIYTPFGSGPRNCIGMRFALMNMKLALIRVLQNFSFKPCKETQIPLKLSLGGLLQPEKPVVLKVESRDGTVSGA

CC1(C)C(O)C=C[C@@]2(C)C1CC(=O)O[C@@]1(C)C3=CC(=O)OC(c4ccoc4)[C@]3(C)CCC21 (stereo not given in full)
AC50 (Cytochrome P450 3A4): 2000 nM (inconclusive)

C[C@@H]1CN([C@H](C)CO)C(=O)c2cccc(NC(=O)C3CCCCC3)c2O[C@H]1CN(C)Cc1ccc(C(F)(F)F)cc1
AC50 [1]: 2830 nM (active)

CC(=O)OCC1OC(Oc2cc(OC(C)=O)c3c(=O)cc(-c4ccc(OC(C)=O)cc4)oc3c2)[C@@H](OC(C)=O)C(OC(C)=O)C1OC(C)=O (stereo not given in full)
AC50 (Cytochrome P450 3A4): 10000 nM (inconclusive)

CCCCCN1C2=NCCN2c2ccccc21
EC50 [2]: 841 nM (active)

Cc1ccn2c(CNCCCn3cccn3)c(C(=O)N3CCCCCC3)nc2c1
EC50 [2]: 2110 nM (active)

CCOC(=O)C1(CC2CC2)CCN(Cc2c[nH]nc2-c2ccccc2)CC1
EC50 [3]: 1330 nM (active) | EC50 [2]: 944 nM (active)

COc1cccc(S(=O)(=O)N[C@@H]2CC[C@H](CCN)O[C@H]2CO)c1
AC50 [4]: 1260 nM (active)

C[C@@H]1CN([C@@H](C)CO)C(=O)c2cc(NS(=O)(=O)c3ccccc3)ccc2O[C@H]1CN(C)Cc1ccc(C(=O)Nc2ccccc2N)cc1
AC50 [1]: 4830 nM (active)

Nc1cc(N2CCCCC2)c([N+](=O)[O-])cc1Cl
EC50 [2]: 5310 nM (active)

COC(=O)C/N=C1/OC(=O)N2C(=O)C3=C4[C@@H](C[C@H]5C(=O)N(c6ccccc6)C(=O)[C@H]5[C@H]4[C@@]12Cc1ccccc1)[C@H]1C(=O)N(c2ccccc2)C(=O)[C@H]1[C@H]3C
AC50 (Cytochrome P450 3A4): 6310 nM (inconclusive)

Cc1nc2ccccc2c2oc(C(=O)NCCN3CCN(C)CC3)cc12
AC50 [5]: 39900 nM (active)

Cc1nn(C(=O)CNS(=O)(=O)c2ccccc2)c(C)c1Sc1ccc(Cl)cc1
AC50 [6]: 4200 nM (active) | EC50 [2]: 1330 nM (active) | EC50 (Protein RecA): 17200 nM (active)
